This data set can be described thus: Lymph node draining of antigen peptide and Cho-CpG (IVIS). The settings on record: 31 nmol FITC-tagged Ag subcutaneously at tail base, after 1 day. The data set is classed as in vivo, C57BL/6 mice. On the procedure: Female C57BL/6 mice of age 6-8 weeks were purchased from Harlan Laboratories. […] 24 hours after injection, mice were euthanized by carbon dioxide inhalation and axillary lymph nodes and inguinal lymph nodes were harvested and imaged with IVIS optical imaging system (Caliper Lifesciences).
After 24 h, inguinal lymph nodes were harvested, and FITC or Cy5 fluorescence signal was measured with IVIS optical imaging system (Caliper Life Sciences).

The structures appear in SMILES notation. Peptide text beside a SMILES is read from it. * marks the point of attachment. FITC = O=C1OC2(c3ccc(O)cc3Oc3cc(O)ccc32)c2ccc(NC(=S)*)cc21

With `CC[C@H](C)[C@H](NC(=O)[C@H](CO)NC(=O)[C@H](CO)NC(=O)[C@H](CO)NC(=O)[C@@H](N)CS)C(=O)N[C@H](C(=O)N[C@@H](CC(N)=O)C(=O)N[C@@H](Cc1ccccc1)C(=O)N[C@@H](CCC(=O)O)C(=O)N[C@@H](CCCCNC(=S)Nc1ccc2c(c1)C(=O)OC21c2ccc(O)cc2Oc2cc(O)ccc21)C(=O)N[C@@H](CC(C)C)C(=O)O)[C@@H](C)CC` [free CSS-SIINFEK(FITC)L] (H-CSSSIINFEK(FITC)L-OH), the “FITC signal in inguinal dLNs” value is on record as “minimal FITC signal in inguinal dLNs”.

(Values after patent US12257352B2, “Compositions and methods for delivery of biomacromolecule agents” (The Regents of the University of Michigan, priority 2016, dated 2025).)
